Experimental data published in patent US20210189341A1, “PLATELET DIAGNOSTIC IMAGING AGENTS” (Cellphire, Inc., priority 2019, published 2021).
Peptide text beside a SMILES is read from it.

Columns and labels:
platelets = assay: Flow cytometry of FITC-TAT loading into platelets in the presence of platelet anti-aggregation compounds; format: cell-based; settings: 100 μM FITC-TAT, 60 minutes, loading buffer, 37° C.
Description: FIG. 3 is a flow cytometry histogram of samples incubated with 100 μM FITC-TAT in the presence of platelet anti-aggregation compounds PGE1, GR144053, and eptifibatide.
Re-suspend platelets in loading buffer (Table 1) or desired incubation solution at a concentration of 500,000 platelets/μL and incubate at 37° C. with low frequency agitation on a rocker for up to 3 hours.
Wash platelets with loading buffer (Table 1) 3× to remove unloaded agents (e.g., FITC-TAT, FITC-labeled magnetic nanoparticles) and use the remaining sample for plate reader, flow cytometer, and/or microscope analysis.
The results for the above formulation are provided herein. A Tecan Infinite M200 Pro plate reader was used for quantification of MRI agent loading. A Novocyte flow cytometer was used to determine both MRI agent loading and percent of platelets effectively loaded. An Olympus microscope was used to visualize the loading into platelets.
Negative controls included 0 μM FITC-TAT in loading buffer and 50 μM fluorescein in loading buffer. All samples were incubated in loading buffer at 37° C. with low frequency agitation on a rocker.

platelets (400 K/μL) = assay: Magnetic resonance imaging of loaded platelet samples; settings: positive control
Text: FIGS. 9A-B show a schematic (FIG. 9A) and magnetic resonance imaging (FIG. 9B).
FIGS. 9A-B show a schematic (FIG. 9A) and magnetic resonance imaging (FIG. 9B). […] Sample 1A included loading buffer and platelets (400 K/μL), sample 1B included loading buffer alone, sample 2A included loading buffer, Gd-DOTA-CPP-FITC, and platelets (400 K/μL), and sample 2B included loading buffer and Gd-DOTA-FITC-CPP only (washed) as another negative control.

SMILES | effect of anti-aggregation compound on platelet loading / distribution of FITC-CPP (flow cytometry histogram) (platelets) | detection by magnetic resonance imaging (platelets (400 K/μL); 100 μM) | detection by magnetic resonance imaging (platelets (400 K/μL); 100 mM)
N=C(N)NCCCC[C@@H]1NC(=O)CCSSC[C@@H](C(N)=O)NC(=O)[C@@H]2CCCN2C(=O)[C@H](Cc2c[nH]c3ccccc23)NC(=O)[C@H](CC(=O)O)NC(=O)CNC1=O [eptifibatide] (HELM PEPTIDE1{[O=C(CCS[*:3])[*:2]].[N=C(N)NCCCC[C@H](N[*:1])C(=O)[*:2]].G.D.W.P.C.[am]}$PEPTIDE1,PEPTIDE1,1:R3-7:R3$$$V2.0) | little to no effect |  | 
CCCCC[C@H](O)/C=C/[C@H]1[C@H](O)CC(=O)[C@@H]1CCCCCCC(=O)O [PGE1, Prostaglandin E1] | improved platelet loading |  | 
[Cl][Gd]([Cl])[Cl] [GdCl3] |  | detection | detection
Cl.Cl.Cl.N=C(N)c1ccc(N2CCN(C3CCN(CC(=O)O)CC3)CC2)cc1 [GR144053] | little to no effect |  | 
